According to patent publication US12235278B2, “Compositions and methods for evaluation of antiplatelet drug sensitivity” (Beth Israel Deaconess Medical Center, Inc., priority 2018, dated 2025):
“Also recorded” adds a separate entry of the source. Each block holds one compound with its values, some of them ahead of it.

Assays:
Assay type in all cases: cell-based
[1] = system: Drp1-Ser616 phosphorylation; test: Western blot of Drp1 Ser616 phosphorylation in platelets; settings: for Drp1 phosphorylation at Ser616 elicited by the agent: platelets incubated with the agent; for Effect on SFLLRN-induced (PAR1-mediated) Drp1-Ser616 phosphorylation: platelets
[2] = system: Drp1-Ser616 phosphorylation; test: Drp1 ratio assay with chemiluminescence format; settings: ADP 20 μM; for Time to maximum Drp1 ratio after exposure to agonist: arachidonic acid 500 μg/mL, SFLLRN 25 μM, elevated by 5 minutes
Protocol: Samples were subsequently lysed and assessed by either colorimetric or chemiluminescence ELISAs. […] Samples were activated with the indicated platelet agonist [A: ADP (20 μM); […] Samples were left at room temperature for the indicated amount of time prior to freezing (−80° C.) and were subsequently analyzed using the Drp1 ratio assay with a chemiluminescence format. […] FIGS. 12A-12C show activation time studies with various platelet agonists. Platelets were exposed to agonists and subsequently analyzed using the Drp1 ratio assay with a chemiluminescence format.

[3] = system: Drp1-Ser637 phosphorylation; test: Western blot of Drp1 Ser637 phosphorylation in platelets
[4] = system: Drp1-Ser616 phosphorylation; test: MAP kinase inhibition studies, ELISA of agonist-induced Drp1-Ser616 phosphorylation in twice washed platelets; settings: agonists SFLLRN, U46619, collagen, ADP or AYPGKF; SB203580 20 μM, PD0325901 5 μM, SP600125 5 μM
Protocol: Using twice washed platelets, 400 μL aliquots were incubated at 37° C. for 30 min with SB203580 (20 μM), PD0325901 (5 μM), SP600125 (5 μM) or left untreated and then activated with respective agonist for 10 min at 37° C. Subsequently, 100 μL of 5×RIPA buffer was added and samples were lysed on ice for minimum of 15 min. Samples were stored at −80° C. until assayed by ELISA.
(§1) Capture antibody (Ms Drp1 mAb) diluted in Tris-buffered saline (TBS) was incubated on plates at RT (2 hrs) or at 4° C. overnight. […] Wells were blocked with 3% BSA in TBST for a minimum of 1.5 hrs. […] Wells were again washed with TBST and incubated with either Rb Drp1 or p-Drp1 (Ser616) mAb at RT for 1 hr.

[5] = system: Drp1-Ser616 phosphorylation; test: Drp1-Ser616 phosphorylation assay in whole blood; settings: for Effect on SFLLRN-induced phospho-Drp1-Ser616 signal: whole blood; for Stimulation of Drp1-Ser616 phosphorylation: whole blood (thrombin: whole blood and platelet rich plasma)
[6] = system: Drp1-Ser616 phosphorylation; test: Arachidonic acid-induced Drp1-Ser616 phosphorylation in platelets, ELISA dose response; settings: Platelet; [arachidonic acid]=10 μg/mL; read-out: IC50, inhibition of arachidonic acid-induced phosphorylation of Drp1-Ser616
Protocol: Dilutions of Tyrode's buffer+3 mM aspirin were prepared. A modified platelet wash protocol was then performed. PRP [supplemented with 20% ACD (v/v) and PGE1 (1 μM)] was spun at 800 g for 12 min. After removal of the supernatant, platelet pellet was resuspended in Tyrode's buffer and allowed to rest at 37° C. for minimum of 25 min. Platelets were counted by Hemavet and were again supplemented with ACD and PGE1 before being aliquoted into microcentrifuge tubes and spun at 800 g for 12 min. Aliquots were of sufficient volume to permit a final platelet count of approximately 4×10^5/μL when platelet pellet was resuspended in 400 μL of Tyrode's buffer or Tyrode's buffer/aspirin dilution. After resuspension, samples were incubated at 37° C. for 1 hr before being activated for 10 min at 37° C. with arachidonic acid (Bio Data Corp. Horsham, PA) at a final concentration of 10 μg/mL. Samples were lysed with 100 μL 5×RIPA buffer on ice for a minimum of 15 min before being stored at −80° C. until assayed by ELISA.
as §1

[7] = system: Drp1-Ser616 phosphorylation; test: SFLLRN-induced Drp1-Ser616 phosphorylation in washed platelets, ELISA dose response (phospho-Drp1-Ser616/total Drp1); settings: Platelet; read-out: IC50, inhibition of SFLLRN-induced Drp1-Ser616 phosphorylation
Protocol: Serial dilutions of Vorapaxar and Cangrelor were prepared in DMSO. […] Vehicle only samples were also prepared and incubated at 37° C. Samples were subsequently lysed with 5×RIPA buffer and stored at −80° C. until assayed by ELISA.
as §1

platelet aggregation = test: Platelet aggregometry, ADP-activated platelets; settings: ADP 20 μM, compared with Drp1 ratio assay

Compound: Nc1ncnc2c1ncn2[C@@H]1O[C@H](COP(=O)(O)OP(=O)(O)O)[C@@H](O)[C@H]1O [ADP]
Drp1 phosphorylation at Ser616 elicited by the agent [1]: resulted in 5616-Drp1 phosphorylation
Time to maximum Drp1 ratio after exposure to agonist [2]: approximately 12. 5 minutes

Compound: CCCCCCOC(=O)[C@]1(O)C[C@@H]2O[C@@]1(C)n1c3ccccc3c3c4c(c5c6ccccc6n2c5c31)C(=O)NC4 [KT5720]
Effect on forskolin-mediated Drp1-Ser637 phosphorylation [3]: completely abolished

Compound: CNc1nc(Cl)nc2c1ncn2CC(COC(=O)C(C)(C)C)COC(=O)C(C)(C)C [MRS 2395]
Effect on ADP-induced Drp1-Ser616 phosphorylation ([1]; platelets incubated with ADP): inhibited

Compound: O=C(NOC[C@H](O)CO)c1ccc(F)c(F)c1Nc1ccc(I)cc1F [PD0325901]
Effect on agonist-induced Drp1-Ser616 phosphorylation [4]: modest inhibition

Compound: Cn1cc(C2=C(c3cn(CCCSC(=N)N)c4ccccc34)C(=O)NC2=O)c2ccccc21 [Ro 31-8220]
Effect on SFLLRN-induced (PAR1-mediated) Drp1-Ser616 phosphorylation [1]: failed to inhibit

Compound: C[S+]([O-])c1ccc(-c2nc(-c3ccncc3)c(-c3ccc(F)cc3)[nH]2)cc1 (stereo not shown) [SB203580]
Effect on agonist-induced Drp1-Ser616 phosphorylation [4]: potently blocked
Effect on SFLLRN-induced phospho-Drp1-Ser616 signal [5]: inhibited
Effect on SFLLRN-induced (PAR1-mediated) Drp1-Ser616 phosphorylation [1]: inhibited

Compound: Oc1c2ccccc2c2c3c(cccc13)N=N2 [SP600125]
Effect on agonist-induced Drp1-Ser616 phosphorylation [4]: failed to inhibit

Compound: CCCCC[C@H](O)/C=C/[C@@H]1[C@@H](C/C=C\CCCC(=O)O)[C@H]2CO[C@@H]1C2 [U46619]
Stimulation of Drp1-Ser616 phosphorylation [5]: significant stimulation
Drp1 phosphorylation at Ser616 elicited by the agent [1]: Phosphorylation of Drp1 at S616 was observed

Compound: CCCCC/C=C\C/C=C\C/C=C\C/C=C\CCCC(=O)O [arachidonic acid]
Stimulation of Drp1-Ser616 phosphorylation [5]: significant stimulation
Time to maximum Drp1 ratio after exposure to agonist [2]: approximately 12. 5 minutes

IC50 [6]: ~1000 nM
Compound: CC(=O)Oc1ccccc1C(=O)O [aspirin, acetylsalicylic acid]

IC50 [7]: ~2 nM
Compound: CSCCNc1nc(SCCC(F)(F)F)nc2c1ncn2[C@@H]1O[C@H](COP(=O)(O)OP(=O)(O)C(Cl)(Cl)P(=O)(O)O)[C@@H](O)[C@H]1O [cangrelor]
Sensitivity of Drp1 ratio assay to inhibition ([2]; compared with platelet aggregometry): equally sensitive
Sensitivity of platelet aggregometry to inhibition (platelet aggregation): equally sensitive

Compound: O=C1CCc2cc(OCCCCc3nnnn3C3CCCCC3)ccc2N1 [cilostazol]
Effect on SFLLRN-induced (PAR1-mediated) Drp1-Ser616 phosphorylation [1]: blocks; also recorded: sensitive; also recorded: prevents phophorylation at Ser616

Compound: COC(=O)[C@H](c1ccccc1Cl)N1CCc2sccc2C1 [clopidogrel]
Effect on SFLLRN-induced phospho-Drp1-Ser616 signal [5]: inhibited

IC50 [7]: ~5 nM
Compound: CCOC(=O)N[C@@H]1CC[C@@H]2[C@@H](C1)C[C@H]1C(=O)O[C@H](C)[C@H]1[C@H]2/C=C/c1ccc(-c2cccc(F)c2)cn1 [vorapaxar]
Effect on SFLLRN-induced phospho-Drp1-Ser616 signal [5]: inhibited

Compound: SFLLRN
Time at which phospho-Drp1-Ser616 signal reaches peak ([5]; following activation of platelets by SFLLRN (FIG. 6C)): 15 min
Increase in phospho-Drp1-Ser616 to total Drp1 ([5]; stimulation of whole blood): greater than 2 fold
Drp1 phosphorylation at Ser616 elicited by the agent [1]: Phosphorylation of Drp1 at S616 was observed
Time to maximum Drp1 ratio after exposure to agonist [2]: approximately 12. 5 minutes

Compound: collagen
Drp1 phosphorylation at Ser616 elicited by the agent [1]: Phosphorylation of Drp1 at S616 was observed

Compound: thrombin
Stimulation of Drp1-Ser616 phosphorylation [5]: significant increases
